Here are results for 36 compounds from patent US20030134859A1 (SANKYO COMPANY, LIMITED, priority 2000, published 2003).

Where a name gives a salt, the structure may show the parent alone.

One experiment deals with Mouse preadipocyte strain 3T3-L1. The experiment can be described thus: Inhibition of differentiation as an indication of acetic acid uptake. It counts as cell-based. Particulars: 0.1 μM test substance, control (0.01% dimethylsulfoxide) = 100%. The essentials:
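Differentiation is indexed by 1 hr [2-14C]acetic acid incorporation, measured by scintillation counting and given as uptake relative to 0.01% DMSO control (100%). Mouse 3T3-L1 preadipocytes, pre-grown 10 days, received 0.1 μM test substance throughout a 4-day insulin/IBMX/dexamethasone induction, followed by 2 days' maintenance culture.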
As to `O=C(Nc1cccc(C(=O)N2CCCC2)c1)c1cc([N+](=O)[O-])ccc1Cl` [Example 31], the “Rate of Uptake (%) of [2-14C] acetic acid” value is listed as 85.9%.
Same read-out and setting: then `Cc1ccc(S(=O)(=O)Nc2ccc(NC(=O)c3cc([N+](=O)[O-])ccc3Cl)cc2)cc1` [Example 32, N-[4-(4-Methylbenzene)sulfonylaminophenyl]-(2-chloro-5-nitrophenyl)carboxamide], with 60.5%; and `O=C(Nc1ccncc1)c1cc([N+](=O)[O-])ccc1Cl` [Example 49, N-(4-Pyridyl)-(2-chloro-5-nitrophenyl)carboxamide], with 69.6%; and `O=C(Nc1ccc(Cl)nn1)c1cc([N+](=O)[O-])ccc1Cl` [Example 89], with 58.1%.
The same measure, in the same setting: then “N-[4-(4-Methylbenzoylamino)phenyl]phenyl]-(2-chloro-5-nitrophenyl)carboxamide [Example 122]”, with 75.4%.

The experiment is the same for the next values; noted with them: Mus musculus, 0.1 μM test substance, control (0.01% dimethylsulfoxide) = 100%, read-out: Rate of Uptake (%) of [2-14C] acetic acid.
Take `O=C(Nc1ccc(-c2ccc([N+](=O)[O-])cc2)cc1)c1cc([N+](=O)[O-])ccc1Cl` [Example 9, N-[4-(4-Nitrophenyl)phenyl)-(2-chloro-5-nitrophenyl)carboxamide]: the activity at 0.1 µM was 59.9%.
Still for that read-out and setting: then `O=C(Nc1ccc([N+](=O)[O-])cc1)c1cc([N+](=O)[O-])ccc1Cl` [Example 23, N-(4-Nitrophenyl)-(2-chloro-5-nitrophenyl)carboxamide], with 59.5%; and `O=C(Nc1ccc([N+](=O)[O-])cn1)c1cc([N+](=O)[O-])ccc1Cl` [Example 24, N-(5-Nitropyridin-2-yl)-(2-chloro-5-nitrophenyl)carboxamide], with 66.1%.
The same measure, in the same setting: then `O=C(Nc1cccc([N+](=O)[O-])c1)c1cc([N+](=O)[O-])ccc1Cl` [Example 25, N-(3-Nitrophenyl)-(2-chloro-5-nitrophenyl)carboxamide], with 66.3%; and `O=C(Nc1cc([N+](=O)[O-])ccc1Cl)c1cc([N+](=O)[O-])ccc1Cl` [Example 28, N-(2-Chloro-5-nitrophenyl)-(2-chloro-5-nitrophenyl)carboxamide], with 87.8%; and `O=C(Nc1ccc(NC(=O)c2cc([N+](=O)[O-])ccc2Cl)nc1)c1cc([N+](=O)[O-])ccc1Cl` [Example 64, 2,5-bis(2-Chloro-5-nitrobenzoylamino)pyridine], with 96.2%.

The same experiment, now with this note: Mus musculus, 3T3-L1, 0.1 μM test substance, control (0.01% dimethylsulfoxide) = 100%, read-out: Rate of Uptake (%) of [2-14C] acetic acid.
On to `CCCc1ccc(NC(=O)c2cc([N+](=O)[O-])ccc2Cl)cc1` [Example 15, N-(4-Propylphenyl)-(2-chloro-5-nitrophenyl)carboxamide], for which the activity at 0.1 µM was found to be 78.4%.
Turning to `O=C(Nc1ccc(OC(F)(F)F)cc1)c1cc([N+](=O)[O-])ccc1Cl` [Example 18, N-(4-Trifluoromethyloxyphenyl)-(2-chloro-5-nitrophenyl)carboxamide], the activity at 0.1 µM amounted to 53.8%.
On the same count and under the same terms, then `N#Cc1cccc(NC(=O)c2cc([N+](=O)[O-])ccc2Cl)c1` [Example 21, N-(3-Cyanophenyl)-(2-chloro-5-nitrophenyl)carboxamide], with 70.3%; and `O=C(Nc1nc(-c2ccc3ccccc3c2)cs1)c1cc([N+](=O)[O-])ccc1Cl` [Example 42, N-[4-(2-Naphthyl)thiazol-2-yl)-(2-chloro-5-nitrophenyl)carboxamide], with 60%.
Still for that read-out and setting: then `O=C(Nc1cnc2ccccc2c1)c1cc([N+](=O)[O-])ccc1Cl` [Example 55, N-(3-Quinolinyl)-(2-chloro-5-nitrophenyl)carboxamide], with 55.4%.
On the same count and under the same terms, then `O=C(Nc1ccc(Cl)nc1)c1cc([N+](=O)[O-])ccc1Cl` [Example 62, N-(6-Chloropyridin-3-yl)-(2-chloro-5-nitrophenyl)carboxamide], with 82.9%; and `O=C(Nc1nc2cc(Cl)ccc2o1)c1cc([N+](=O)[O-])ccc1Cl` [Example 75, N-(5-Chlorobenzoxazol-2-yl)-(2-chloro-5-nitrophenyl)carboxamide], with 80.1%.
As to `O=C(Nc1ncc(Br)cn1)c1cc([N+](=O)[O-])ccc1Cl` [Example 77, N-(5-Bromopyrimidin-2-yl)-(2-chloro-5-nitrophenyl)carboxamide], the activity at 0.1 µM was 62.7%.
The same measure, in the same setting: then `Nc1ccc(-c2ccc(NC(=O)c3cc([N+](=O)[O-])ccc3Cl)cc2)cc1` [Example 88, N-[4-(4-Aminophenyl)phenyl]-(2-chloro-5-nitrophenyl)carboxamide mono-hydrochloride], with 56.4%; and `Cc1c(C)c2c(c(C)c1O)C(=O)CC(C)(COc1ccc(NC(=O)c3cc([N+](=O)[O-])ccc3Cl)cc1)O2` (centres unmarked) [Example 92, N-[4-(6-Hydroxy-2,5,7,8-tetramethyl-4-oxochroman-2-ylmethoxy)phenyl]-(2-chloro-5-nitrophenyl)carboxamide], with 63%; and `CS(=O)(=O)Nc1ccc(-c2ccc(NC(=O)c3cc([N+](=O)[O-])ccc3Cl)cc2)cc1` [Example 93, N-[4-[4-(Methanesulfonylamino)phenyl]phenyl]-(2-chloro-5-nitrophenyl)carboxamide], with 90.3%.
Regarding `Cc1ccc(S(=O)(=O)Nc2ccc(-c3ccc(NC(=O)c4cc([N+](=O)[O-])ccc4Cl)cc3)cc2)cc1` [Example 94, N-[4-[4-(4-Toluenesulfonylamino)phenyl]phenyl]-(2-chloro-5-nitrophenyl)carboxamide], the activity at 0.1 µM amounted to 80.4%.
The same measure, in the same setting: then `Cc1nnc(NS(=O)(=O)c2ccc(NC(=O)c3cc([N+](=O)[O-])ccc3Cl)cc2)s1` [Example 101, N-[4-[(5-Methyl-[1,3,4]thiadiazol-2-yl)aminosulfonyl]phenyl]-(2-chloro-5-nitrophenyl)carboxamide], with 78.3%.
With `CC(=O)Nc1ccc(-c2ccc(NC(=O)c3cc([N+](=O)[O-])ccc3Cl)cc2)cc1` [Example 118, N-[4-(4-Acetylaminophenyl)phenyl]-(2-chloro-5-nitrophenyl)carboxamide], the activity at 0.1 µM came to 79.6%.
The same measure, in the same setting: then `O=C(Nc1ccc(-c2ccc(NC(=O)c3cc([N+](=O)[O-])ccc3Cl)cc2)cc1)c1ccccc1` [Example 120, N-[4-(4-Benzoylaminophenyl)phenyl]-(2-chloro-5-nitrophenyl)carboxamide], with 64.6%; and `O=C(Nc1ccc(-c2ccc(NC(=O)c3cc([N+](=O)[O-])ccc3Cl)cc2)cc1)c1cccnc1` [Example 124, N-[4-[4-(Pyridin-3-ylcarbonylamino)phenyl]phenyl]-(2-chloro-5-nitrophenyl)carboxamide], with 60%; and `O=C(Nc1cnccn1)c1cc([N+](=O)[O-])ccc1Cl` [Example 140, N-(Pyrazin-2-yl)-(2-chloro-5-nitrophenyl)carboxamide], with 72.4%.
On the same count and under the same terms, then `Cl.O=C(Nc1ccncc1)c1cc([N+](=O)[O-])ccc1Cl` [Example 146, N-(Pyridin-4-yl)-(2-chloro-5-nitrophenyl)carboxamide Hydrochloride], with 60%; and `Cc1ccc(C(=O)Nc2nc3ccc(NC(=O)c4cc([N+](=O)[O-])ccc4Cl)cc3s2)cc1` [Example 149, N-[2-(4-Methylbenzoylamino)benzothiazol-6-yl]-(2-chloro-5-nitrophenyl)carboxamide], with 76.5%.

Another experiment relates to Rat white adipocytes. Briefly: Stimulation of differentiation of the adipocytes (Oil Red O). It counts as cell-based. Particulars: 100 nM test compound; 5 days; Oil Red O ABS550; control = 100%, blank = 0%; Table 7. The essentials:
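Oil Red O lipid staining, absorbance 550 nm after DMSO extraction, quantified differentiation of rat white adipocytes exposed 5 days to compound (final 100 nM, 0.1% DMSO) in differentiation medium. Percent differentiation normalised between cell-free blank (0%) and DMSO control (100%).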
Take `Cc1ccc(S(=O)(=O)Nc2ccc(NC(=O)c3cc([N+](=O)[O-])ccc3Cl)cc2)cc1` [Example 32, N-[4-(4-Methylbenzene)sulfonylaminophenyl]-(2-chloro-5-nitrophenyl)carboxamide]: the “Rate of Differentiation (%)” value was determined as 114.6%.

The same experiment, now with this note: Rattus norvegicus, Adipocyte, 120 h, 100 nM test compound; 5 days; Oil Red O ABS550; control = 100%, blank = 0%; Table 7; read-out: Rate of Differentiation (%).
Consider `O=C(Nc1ccc(-c2ccc([N+](=O)[O-])cc2)cc1)c1cc([N+](=O)[O-])ccc1Cl` [Example 9, N-[4-(4-Nitrophenyl)phenyl)-(2-chloro-5-nitrophenyl)carboxamide], for which the activity at 0.1 µM was determined as 116%.
On the same count and under the same terms, then `CCCc1ccc(NC(=O)c2cc([N+](=O)[O-])ccc2Cl)cc1` [Example 15, N-(4-Propylphenyl)-(2-chloro-5-nitrophenyl)carboxamide], with 124%.
Still for that read-out and setting: then `O=C(Nc1ccc(OC(F)(F)F)cc1)c1cc([N+](=O)[O-])ccc1Cl` [Example 18, N-(4-Trifluoromethyloxyphenyl)-(2-chloro-5-nitrophenyl)carboxamide], with 115%; and `O=C(Nc1cc([N+](=O)[O-])ccc1Cl)c1cc([N+](=O)[O-])ccc1Cl` [Example 28, N-(2-Chloro-5-nitrophenyl)-(2-chloro-5-nitrophenyl)carboxamide], with 111%; and `O=C(Nc1ccc(NS(=O)(=O)c2ccccc2)cc1)c1cc([N+](=O)[O-])ccc1Cl` [Example 127, N-(4-Benzenesulfonylaminophenyl)-(2-chloro-5-nitrophenyl)carboxamide], with 112%.
For the compound `O=C(Nc1ccc(C(=O)N2CCCCC2)cc1)c1cc([N+](=O)[O-])ccc1Cl` [Example 159, N-[4-(Piperidylcarbonyl)phenyl]-(2-chloro-5-nitrophenyl)carboxamide], the activity at 0.1 µM turned out to be 123%.
For the compound `CC(C)(C)c1cc(NS(=O)(=O)c2cccc(NC(=O)c3cc([N+](=O)[O-])ccc3Cl)c2)cc(C(C)(C)C)c1O` [Example 161, N-[3-[(3,5-di-tert-Butyl-4-hydroxyphenyl)aminosulfonyl]phenyl]-(2-chloro-5-nitrophenyl)carboxamide], the activity at 0.1 µM was 113%.
Still for that read-out and setting: then `CC(C)(C)c1cc(NS(=O)(=O)c2ccc(NC(=O)c3cc([N+](=O)[O-])ccc3Cl)cc2)cc(C(C)(C)C)c1O` [Example 175, N-[4-[(3,5-di-tert-Butyl-4-hydroxyphenyl)aminosulfonyl]phenyl]-(2-chloro-5-nitrophenyl)carboxamide], with 114%.
On the same count and under the same terms, then `CCCN(CCC)c1ccc(NC(=O)c2cc([N+](=O)[O-])ccc2Cl)cc1` [Example 182, N-[4-(N,N-Dipropylamino)phenyl]-(2-chloro-5-nitrophenyl)carboxamide], with 122%.
Same read-out and setting: then `O=C(Nc1nc(-c2ccc([N+](=O)[O-])cc2)cs1)c1cc([N+](=O)[O-])ccc1Cl` [Example 246, N-[4-(4-Nitrophenyl)thiazol-2-yl]-(2-chloro-5-nitrophenyl)carboxamide], with 120%.
